Data published in ChEMBL document CHEMBL5126518, “Quercetin derivatives: Drug design, development, and biological activities, a review” (Eur J Med Chem, 2022).
Values after ≈ are worked out from the molar mass of the structure shown.

How the values were obtained:
[1] = system: Candida albicans; assay: Antifungal activity against Candida albicans 13/15 assessed as fungal growth inhibition measured after 24 hrs by microdilution assay; type: functional
[2] = system: Candida albicans; assay: Antifungal activity against Candida albicans 527/14 assessed as fungal growth inhibition measured after 24 hrs by microdilution assay; type: functional
[3] = system: Candida albicans; assay: Antifungal activity against Candida albicans 475/15 assessed as fungal growth inhibition measured after 24 hrs by microdilution assay; type: functional
[4] = system: MDA-MB-231; assay: Antiproliferative activity against human MDA-MB-231 cells assessed as cell growth inhibition measured after 72 hrs by MTT assay; type: functional, cell-based; details: MDA-MB-231, 72 h
[5] = system: Candida albicans; assay: Antifungal activity against Candida albicans 10/15 assessed as fungal growth inhibition measured after 24 hrs by microdilution assay; type: functional
[6] = Antioxidant activity assessed as DPPH radical scavenging activity after 30 mins under dark condition; type: functional
[7] = Inhibition of Escherichia coli topoisomerase 2 supercoiling activity by gel electrophoresis
[8] = Inhibition of Escherichia coli topoisomerase 4 decatenation activity by gel electrophoresis
[9] = target: UDP-galactopyranose mutase (Mycobacterium tuberculosis) (UniProt P9WIQ1); assay: Inhibition of Mycobacterium tuberculosis UGM at 20 uM by HPLC inhibition assay relative to control
[10] = target: Type-1 angiotensin II receptor (Homo sapiens, UniProt P30556); assay: Inhibition of human AT1R expressed in HEK293 cells by non-linear regression analysis; type: cell-based
[11] = Competitive inhibition of xanthine oxidase (unknown origin) at 0.05 uM using xanthine as substrate preincubated with substrate for 1 min followed by compound addition by double beam spectrophotometer analysis relative to control
[12] = system: MCF7; assay: Antiproliferative activity against human MCF7 assessed as reduction in cell viability incubated for 48 hrs by MTT assay; type: functional
[13] = system: Klebsiella pneumoniae; assay: Antibacterial activity against Klebsiella pneumoniae ATCC 13883 assessed as cell growth inhibition incubated for 18 hrs by agar overlay method; type: functional
[14] = system: Bacillus subtilis; assay: Antibacterial activity against Bacillus subtilis ATCC 6633 assessed as cell growth inhibition incubated for 18 hrs by agar overlay method; type: functional
[15] = system: Staphylococcus aureus; assay: Antibacterial activity against Staphylococcus aureus ATCC 6538 assessed as cell growth inhibition incubated for 18 hrs by agar overlay method; type: functional
[16] = system: Enterobacter cloacae; assay: Antibacterial activity against Enterobacter cloacae assessed as cell growth inhibition incubated for 18 hrs by agar overlay method; type: functional
[17] = system: Bacillus cereus; assay: Antibacterial activity against Bacillus cereus NAS 596 assessed as cell growth inhibition incubated for 18 hrs by agar overlay method; type: functional
[18] = system: Escherichia coli; assay: Antibacterial activity against Escherichia coli ATCC 25922 assessed as cell growth inhibition incubated for 18 hrs by agar overlay method; type: functional
[19] = system: Proteus mirabilis; assay: Antibacterial activity against Proteus mirabilis assessed as cell growth inhibition incubated for 18 hrs by agar overlay method; type: functional
[20] = system: Heyndrickxia coagulans; assay: Antibacterial activity against Bacillus coagulans assessed as cell growth inhibition incubated for 18 hrs by agar overlay method; type: functional
[21] = system: Pseudomonas aeruginosa; assay: Antibacterial activity against carbapenem-resistant Pseudomonas aeruginosa CCARM2321 assessed as fold reduction in ceftazidime MIC incubated for 20 hrs by checkerboard synergy test; type: functional
[22] = system: Staphylococcus aureus; assay: Antibiofilm activity against vancomycin-intermediate Staphylococcus aureus ATCC 700699 assessed as inhibition of biofilm formation incubated for 24 hrs by crystal violet staining based assay; type: functional, organism-based; details: ATCC 700699, 24 h
[23] = system: Acinetobacter baumannii; assay: Antibacterial activity against carbapenem-resistant Acinetobacter baumannii AMC-AB 643 assessed as fold reduction in ceftazidime MIC incubated for 20 hrs by checkerboard synergy test; type: functional
[24] = system: MCF7; assay: Induction of apoptosis in human MCF7 cells assessed as early apoptotic cells at 50 uM measured after 12 hrs by annexin V-FITC/propidium iodide staining based flow cytometry relative to control; type: functional
[25] = system: Pseudomonas aeruginosa; assay: In vivo antibacterial activity against carbapenem-susceptible Pseudomonas aeruginosa ATCC 27853 infected in CD-1 mouse assessed as mouse survival at 40 mg/kg per day administered for 7 days in presence of ceftazidime; type: functional; details: time 7 day
[26] = Antioxidant activity assessed as DPPH radical scavenging activity up to 2 mM relative to control; type: functional
[27] = system: Staphylococcus aureus; assay: Antibiofilm activity against heteroresistant vancomycin-intermediate Staphylococcus aureus ATCC 700698 assessed as inhibition of biofilm formation incubated for 24 hrs by crystal violet staining based assay; type: functional, organism-based; details: ATCC 700698, 24 h
[28] = system: Staphylococcus aureus; assay: Antibiofilm activity against methicillin resistant Staphylococcus aureus AMCSA 5016 assessed as inhibition of biofilm formation incubated for 24 hrs by crystal violet staining based assay; type: functional, organism-based; details: AMCSA 5016, 24 h
[29] = system: Staphylococcus aureus; assay: Antibiofilm activity against methicillin sensitive Staphylococcus aureus ATCC 29213 assessed as inhibition of biofilm formation incubated for 24 hrs by crystal violet staining based assay; type: functional, organism-based; details: ATCC 29213, 24 h
[30] = system: Influenza A virus; assay: Antiviral activity against Influenza A virus H1N1/pdm09 infected in MDCK cells pretreated with compound for 1 hr followed virus infection measured after 48 hrs; type: functional, organism-based
[31] = Cytotoxicity against MDCK cells assessed as reduction in cell viability incubated for 48 hrs by MTT assay; type: toxicity, cell-based, Canis lupus familiaris; details: dog, read-out: CTD50
[32] = Selectivity index, ratio of CTD50 for cytotoxicity against MDCK cells to EC50 for antiviral activity against Influenza A H1N1/pdm09 infected in MDCK cells; type: toxicity, cell-based; details: dog, read-out: Selectivity Index

Chain of UDP-galactopyranose mutase (Mycobacterium tuberculosis) (P9WIQ1 whole entry, looked up): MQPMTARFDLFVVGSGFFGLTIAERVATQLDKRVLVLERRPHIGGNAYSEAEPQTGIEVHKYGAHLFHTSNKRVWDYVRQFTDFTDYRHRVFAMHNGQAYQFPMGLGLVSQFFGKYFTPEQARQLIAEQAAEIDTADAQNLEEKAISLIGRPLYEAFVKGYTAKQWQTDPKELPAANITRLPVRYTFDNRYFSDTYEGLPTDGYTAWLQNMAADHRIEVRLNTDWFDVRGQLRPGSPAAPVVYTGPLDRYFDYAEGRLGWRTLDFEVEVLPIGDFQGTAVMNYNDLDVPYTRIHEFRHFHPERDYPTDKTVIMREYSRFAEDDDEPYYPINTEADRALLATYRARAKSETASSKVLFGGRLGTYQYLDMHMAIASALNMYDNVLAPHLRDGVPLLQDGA
Chain of Type-1 angiotensin II receptor (P30556 whole entry): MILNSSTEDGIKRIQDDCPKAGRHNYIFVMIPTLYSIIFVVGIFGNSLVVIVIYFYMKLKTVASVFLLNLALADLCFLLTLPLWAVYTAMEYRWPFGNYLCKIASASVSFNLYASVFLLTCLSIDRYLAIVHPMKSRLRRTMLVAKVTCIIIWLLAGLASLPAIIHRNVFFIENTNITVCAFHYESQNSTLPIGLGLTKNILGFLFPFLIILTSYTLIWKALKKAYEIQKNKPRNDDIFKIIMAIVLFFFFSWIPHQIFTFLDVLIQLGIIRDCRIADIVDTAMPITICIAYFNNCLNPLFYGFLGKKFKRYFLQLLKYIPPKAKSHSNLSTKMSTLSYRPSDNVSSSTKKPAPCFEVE

Compound: O=c1cc(-c2ccc(O)c(O)c2)oc2cc(O)cc(O)c12 [LUTEOLIN]
- MIC [1]: 37.5 µg/mL (≈ 131 µM)
- MIC [2]: 37.5 µg/mL (≈ 131 µM)
- MIC [3]: 37.5 µg/mL (≈ 131 µM)
- IC50 [4]: 7.29 µM
- MIC [5]: 37.5 µg/mL (≈ 131 µM)

Compound: COc1cc(OC)c2/c(=N/N)c(OC)c(-c3ccc(OC)c(OC)c3)oc2c1
- IC50 [6]: 40 µM

Compound: COc1ccc(CNCc2c(O)cc(O)c3c(=O)cc(-c4ccc(O)c(O)c4)oc23)cc1
- IC50 [7]: 0.25 µg/mL (≈ 0.574 µM)
- IC50 [8]: 0.25 µg/mL (≈ 0.574 µM)

Compound: O=c1c(O)c(-c2ccc(O)c(O)c2)oc2c(CN3CCSCC3)c(O)cc(O)c12
- inhibition [9]: 57.9%

Compound: COc1cc(OC)c2/c(=N/c3ccccc3)c(OC)c(-c3ccc(OC)c(OC)c3)oc2c1
- IC50 [6]: 490 µM

Compound: CCCCc1nc(Cl)c(COC(=O)CCC(=O)Oc2ccc(-c3oc4cc(O)cc(O)c4c(=O)c3O)cc2O)n1Cc1ccc(-c2ccccc2-c2nnn[nH]2)cc1
- IC50 [10]: 0.14 µM

Compound: O=c1oc2c(O)ccc(-c3oc4cc(O)cc(O)c4c(=O)c3O)c2s1
- inhibition [11]: 50%

Compound: COc1cc(-c2oc3cc(O)cc(O)c3c(=O)c2O[C@@H]2O[C@H](C(=O)[O-])[C@@H](O)[C@H](O)[C@H]2O)ccc1O.[Na+]
- Activity [12]: 49.8%

Compound: O=c1c(O)c(-c2ccccc2)oc2cc(O)cc(O)c12 [GALANGIN]
- MIC [13]: 0.25 µg/mL (≈ 0.925 µM)
- MIC [14]: 0.25 µg/mL (≈ 0.925 µM)
- MIC [15]: 0.25 µg/mL (≈ 0.925 µM)
- MIC [16]: 0.25 µg/mL (≈ 0.925 µM)
- MIC [17]: 0.25 µg/mL (≈ 0.925 µM)
- MIC [18]: 0.25 µg/mL (≈ 0.925 µM)
- MIC [19]: 0.25 µg/mL (≈ 0.925 µM)
- MIC [20]: 0.25 µg/mL (≈ 0.925 µM)

Compound: O=c1c(O)c(-c2ccc(O)c(O)c2)oc2c(CN3CCOCC3)c(O)cc(O)c12
- inhibition [9]: 100%

Compound: COc1cc(OC)c2c(=S)c(OC)c(-c3ccc(OC)c(OC)c3)oc2c1
- IC50 [6]: 360 µM

Compound: O=c1c(O)c(-c2ccc(F)c(F)c2)oc2cc(O)cc(O)c12
- fold change (FC) [21]: 8
- IC50 [22]: 1.8 µg/mL (≈ 5.88 µM)
- fold change (FC) [23]: 4
- Activity [24]: 47.7%
- Activity [25]: 20%
- Activity [26]: 50%
- IC50 [27]: 1.8 µg/mL (≈ 5.88 µM)
- IC50 [28]: 1.8 µg/mL (≈ 5.88 µM)
- IC50 [29]: 1.8 µg/mL (≈ 5.88 µM)

Compound: CCOC1(Br)C(=O)c2c(O)c(Br)c(O)c(Br)c2OC1(Br)c1cc(O)c(O)c(Br)c1 (stereo not given)
- EC50 [30]: 6 µg/mL (≈ 8.26 µM)
- CC50 at 48 h [31]: 97.7 µg/mL (≈ 134 µM)
- selectivity ratio [32]: 16
